These results are taken from BindingDB's records for doi:10.1021/jm990309x (University of New Mexico, 1999).

The structures appear in SMILES notation.

The assay deals with Bile salt-activated lipase (Sus scrofa). Nature of the assay: Inhibition of the Pancreatic Cholesterol Esterase from porcine.
With `O=c1oc(Cl)ccc1CCC1CCCCC1` [6-Chloro-3-(2-cyclohexyl-ethyl)-pyran-2-one], the Ki is 25 nM.

For the compound `O=c1oc(Cl)ccc1CCCC1CCCCC1` [6-Chloro-3-(3-cyclohexyl-propyl)-pyran-2-one], the Ki came out at 60 nM.

Consider `O=c1oc(Cl)ccc1CC1CCCCC1` [6-Chloro-3-cyclohexylmethyl-pyran-2-one], for which the Ki stood at 2200 nM.

Usually Ki stands for the equilibrium dissociation constant of an inhibitor or competing ligand from its target.
